Several values for one entry are separate records, joined by “and”; a condition that tells them apart may be missing. Equal values may be shown once.
Test system: BDF1 mice, Adenocarcinoma 755 s.c., tumor weight T/C
Assay: NCI In Vivo Anticancer Drug Screen. Data for tumor model Adenocarcinoma 755 (subcutaneous) in B6D2F1 (BDF1) mice
Settings: endpoint: mean tumor weight, higher = larger tumour
In short: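 In vivo antitumor screen on a transplantable tumor line. Result equals the measure in compound-treated animals divided by the same measure in vehicle controls.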

[1] = dose: 60.0 mg/kg/injection, schedule: Q01DX011 (ip), vehicle: carboxymethylcellulose (CMC)
[2] = dose: 125.0 mg/kg/injection, schedule: Q01DX011 (ip), vehicle: methylcellulose (MC)
[3] = dose: 250.0 mg/kg/injection, schedule: Q01DX011 (ip), vehicle: methylcellulose (MC)
[4] = dose: 75.0 mg/kg/injection, schedule: Q01DX011 (ip), vehicle: methylcellulose (MC)
[5] = dose: 31.0 mg/kg/injection, schedule: Q01DX011 (ip), vehicle: methylcellulose (MC)
[6] = dose: 62.0 mg/kg/injection, schedule: Q01DX011 (ip), vehicle: methylcellulose (MC)
[7] = dose: 15.0 mg/kg/injection, schedule: Q01DX011 (ip), vehicle: methylcellulose (MC)
[8] = dose: 25.0 mg/kg/injection, schedule: Q01DX011 (ip), vehicle: methylcellulose (MC)
[9] = dose: 225.0 mg/kg/injection, schedule: Q01DX011 (ip), vehicle: methylcellulose (MC)

CS(=O)(=O)OCCC(=O)NCCCNC(=O)CCOS(C)(=O)=O
T/C (dose: 28.0 mg/kg/injection, schedule: Q01DX011 (ip), vehicle: methylcellulose (MC)): 85 % of control
T/C (dose: 52.0 mg/kg/injection, schedule: Q01DX011 (ip), vehicle: methylcellulose (MC)): 49 % of control

Nc1nc(Br)c2ncn(C3OC(CO)C(O)C3O)c2n1 (stereo unspecified)
T/C (dose: 30.0 mg/kg/injection, schedule: Q01DX011 (ip), vehicle: carboxymethylcellulose (CMC)): 107 % of control
T/C [1]: 86 % of control
T/C (dose: 120.0 mg/kg/injection, schedule: Q01DX011 (ip), vehicle: carboxymethylcellulose (CMC)): 106 % of control
T/C (dose: 240.0 mg/kg/injection, schedule: Q01DX011 (ip), vehicle: carboxymethylcellulose (CMC)): 103 % of control

N[C@@H](Cc1ccc(N(CCCl)CCCl)cc1)C(=O)O
T/C (dose: 0.31 mg/kg/injection, schedule: Q01DX011 (ip), vehicle: carboxymethylcellulose (CMC)): 66 % of control
T/C (dose: 0.62 mg/kg/injection, schedule: Q01DX011 (ip), vehicle: carboxymethylcellulose (CMC)): 101 % of control
T/C (dose: 1.25 mg/kg/injection, schedule: Q01DX011 (ip), vehicle: carboxymethylcellulose (CMC)): 59 % of control
T/C (dose: 2.5 mg/kg/injection, schedule: Q01DX011 (ip), vehicle: carboxymethylcellulose (CMC)): 29 % of control

c1ncc2[nH]cnc2n1
T/C (dose: 27.33 mg/kg/injection, schedule: Q01DX011 (ip), vehicle: carboxymethylcellulose (CMC)): 71 % of control
T/C (dose: 49.34 mg/kg/injection, schedule: Q01DX011 (ip), vehicle: carboxymethylcellulose (CMC)): 80 % of control
T/C (dose: 54.67 mg/kg/injection, schedule: Q01DX011 (ip), vehicle: carboxymethylcellulose (CMC)): 82 % of control
T/C (dose: 62.5 mg/kg/injection, schedule: Q01DX011 (ip), vehicle: methylcellulose (MC)): 68 % of control
T/C (dose: 98.68 mg/kg/injection, schedule: Q01DX011 (ip), vehicle: carboxymethylcellulose (CMC)): 71 % of control
T/C (dose: 109.35 mg/kg/injection, schedule: Q01DX011 (ip), vehicle: carboxymethylcellulose (CMC)): 91 % of control
T/C [2]: 57 % of control
T/C (dose: 173.2 mg/kg/injection, schedule: Q01DX011 (ip), vehicle: carboxymethylcellulose (CMC)): 101 % of control
T/C (dose: 197.35 mg/kg/injection, schedule: Q01DX011 (ip), vehicle: carboxymethylcellulose (CMC)): 69 % of control
T/C (dose: 218.7 mg/kg/injection, schedule: Q01DX011 (ip), vehicle: carboxymethylcellulose (CMC)): 123 % of control
T/C [3]: 54 % of control
T/C (dose: 288.66 mg/kg/injection, schedule: Q01DX011 (ip), vehicle: carboxymethylcellulose (CMC)): 72 % of control
T/C (dose: 394.7 mg/kg/injection, schedule: Q01DX011 (ip), vehicle: carboxymethylcellulose (CMC)): 35 % of control

O=C1Nc2ccccc2SC1c1ccccc1Cl (stereo unspecified)
T/C [4]: 94 % of control and 78 % of control
T/C (dose: 150.0 mg/kg/injection, schedule: Q01DX011 (ip), vehicle: methylcellulose (MC)): 54 % of control and 60 % of control

Cc1cnc(SCc2ccc(Cl)cc2Cl)[nH]c1=O
T/C [5]: 110 % of control
T/C [6]: 113 % of control
T/C [2]: 82 % of control
T/C [3]: 99 % of control

CSc1ncc(Br)c(Nc2ccc(C)cc2)n1
T/C [7]: 75 % of control
T/C [5]: 74 % of control
T/C [6]: 75 % of control
T/C [2]: 92 % of control
T/C [3]: 68 % of control

NC(=O)c1ccc(NC(=O)/C=C/C(=O)Nc2ccc(C(N)=O)cn2)nc1
T/C (dose: 0.47 mg/kg/injection, schedule: Q01DX011 (ip), vehicle: carboxymethylcellulose (CMC)): 75 % of control
T/C (dose: 0.94 mg/kg/injection, schedule: Q01DX011 (ip), vehicle: carboxymethylcellulose (CMC)): 69 % of control
T/C (dose: 1.87 mg/kg/injection, schedule: Q01DX011 (ip), vehicle: carboxymethylcellulose (CMC)): 28 % of control

Nc1nc2ncc(CNc3ccc(C(=O)NC(CCC(=O)O)C(=O)O)cc3)nc2c(=O)[nH]1 (stereo unspecified)
T/C (dose: 6.95 mg/kg/injection, schedule: Q01DX011 (ip), vehicle: carboxymethylcellulose (CMC)): 78 % of control
T/C (dose: 13.9 mg/kg/injection, schedule: Q01DX011 (ip), vehicle: carboxymethylcellulose (CMC)): 77 % of control
T/C (dose: 17.38 mg/kg/injection, schedule: Q01DX011 (ip), vehicle: carboxymethylcellulose (CMC)): 221 % of control and 79 % of control
T/C (dose: 22.24 mg/kg/injection, schedule: Q01DX011 (ip), vehicle: carboxymethylcellulose (CMC)): 63 % of control
T/C (dose: 27.8 mg/kg/injection, schedule: Q01DX011 (ip), vehicle: carboxymethylcellulose (CMC)): 52 % of control and 60 % of control and 75 % of control
T/C (dose: 34.75 mg/kg/injection, schedule: Q01DX011 (ip), vehicle: carboxymethylcellulose (CMC)): 65 % of control
T/C (dose: 40.0 mg/kg/injection, schedule: Q01DX011 (ip), vehicle: carboxymethylcellulose (CMC)): 70 % of control
T/C (dose: 50.0 mg/kg/injection, schedule: Q01DX011 (ip), vehicle: carboxymethylcellulose (CMC)): 50 % of control
T/C (dose: 55.6 mg/kg/injection, schedule: Q01DX011 (ip), vehicle: carboxymethylcellulose (CMC)): 33 % of control and 55 % of control
T/C [1]: 27 % of control
T/C (dose: 65.0 mg/kg/injection, schedule: Q01DX011 (ip), vehicle: carboxymethylcellulose (CMC)): 68 % of control

C[C@]12CCC(=O)C=C1CC[C@@H]1[C@@H]2[C@@H](O)C[C@@]2(C)[C@H]1CC[C@]2(O)C(=O)COC(=O)COCC(=O)O
T/C (dose: 50.0 mg/kg/injection, schedule: Q01DX011 (ip), vehicle: steriod suspending solution): 53 % of control
T/C (dose: 50.0 mg/kg/injection, schedule: Q01DX011 (sc), vehicle: steriod suspending solution): 54 % of control
T/C (dose: 100.0 mg/kg/injection, schedule: Q01DX011 (ip), vehicle: steriod suspending solution): 22 % of control
T/C (dose: 100.0 mg/kg/injection, schedule: Q01DX011 (sc), vehicle: steriod suspending solution): 62 % of control
T/C (dose: 200.0 mg/kg/injection, schedule: Q01DX011 (ip), vehicle: steriod suspending solution): 12 % of control
T/C (dose: 200.0 mg/kg/injection, schedule: Q01DX011 (sc), vehicle: steriod suspending solution): 56 % of control
T/C (dose: 400.0 mg/kg/injection, schedule: Q01DX011 (sc), vehicle: steriod suspending solution): 31 % of control

Nc1nc(Cl)cc(Nc2ccc(CCO)cc2)n1
T/C [7]: 101 % of control
T/C [6]: 77 % of control
T/C [2]: 102 % of control

Nc1nc(SCc2ccccc2[N+](=O)[O-])c2ncn(C3OC(CO)C(O)C3O)c2n1 (stereo unspecified)
T/C (dose: 12.5 mg/kg/injection, schedule: Q01DX011 (ip), vehicle: methylcellulose (MC)): 21 % of control
T/C [8]: 7 % of control
T/C (dose: 50.0 mg/kg/injection, schedule: Q01DX011 (ip), vehicle: methylcellulose (MC)): 2 % of control

CCC(C)N1C(=O)CCC1=O (stereo unspecified)
T/C (dose: 37.5 mg/kg/injection, schedule: Q01DX011 (ip), vehicle: saline): 26 % of control
T/C (dose: 75.0 mg/kg/injection, schedule: Q01DX011 (ip), vehicle: saline): 58 % of control
T/C (dose: 150.0 mg/kg/injection, schedule: Q01DX011 (ip), vehicle: saline): 95 % of control
T/C (dose: 300.0 mg/kg/injection, schedule: Q01DX011 (ip), vehicle: saline): 99 % of control

Brc1ncnc2c1ncn2C1CCCS1 (stereo unspecified)
T/C [8]: 75 % of control
T/C [4]: 66 % of control
T/C [9]: 86 % of control

CC(=O)OCCOc1ccc(C(C)(C)C)cc1
T/C (dose: 57.0 mg/kg/injection, schedule: Q01DX011 (ip), vehicle: methylcellulose (MC)): 57 % of control
T/C (dose: 113.0 mg/kg/injection, schedule: Q01DX011 (ip), vehicle: carboxymethylcellulose (CMC)): 122 % of control
T/C (dose: 113.0 mg/kg/injection, schedule: Q01DX011 (ip), vehicle: methylcellulose (MC)): 83 % of control
T/C (dose: 225.0 mg/kg/injection, schedule: Q01DX011 (ip), vehicle: carboxymethylcellulose (CMC)): 171 % of control
T/C [9]: 47 % of control
T/C (dose: 450.0 mg/kg/injection, schedule: Q01DX011 (ip), vehicle: carboxymethylcellulose (CMC)): 107 % of control
T/C (dose: 500.0 mg/kg/injection, schedule: Q01DX011 (ip), vehicle: carboxymethylcellulose (CMC)): 70 % of control
T/C (dose: 600.0 mg/kg/injection, schedule: Q01DX011 (ip), vehicle: carboxymethylcellulose (CMC)): 65 % of control

From PubChem BioAssay AID180 (DTP/NCI, 2004)
